What all share (assay): MTT cell proliferation assay
Holding throughout (assay type): cell-based

In one test the test system is MDA-MB-231 cells. Particulars: Homo sapiens; MDA-MB-231 cell line; read-out: MTT Assay IC50, MDA-MB-231. How it is done: The MTT cell proliferation assay was used to study the cytotoxic properties of the compounds. The assay was performed according to the method described by Roche Molecular Biochemicals, with minor modifications. The assay is based on the cleavage of the tetrazolium salt, MTT, in the presence of an electron-coupling reagent. The water-insoluble formazan salt produced must be solubilized in an additional step. Cells grown in a 96-well tissue culture plate were incubated with the MTT solution for approximately 4 hours. After this incubation period, a water-insoluble formazan dye formed. After solubilization, the formazan dye was quantitated using a scanning multi-well spectrophotometer (ELISA reader). […] The cells were seeded at 5,000-10,000 cells in each well of 96-well plate in 100 μL of fresh culture medium and were allowed to attach overnight. The stock solutions of the compounds were diluted in 100 μL cell culture medium to obtain eight concentrations of each test compound, ranging from 1 nM to 30 μM. […] All optical densities were measured at 490 nm using a Vmax Kinetic Microplate Reader (Molecular Devices). In most cases, the assay was performed in duplicate and the results were presented as a mean percent inhibition to the negative control±SE. The following formula was used to calculate the percent of inhibition: Inhibition (%)=(1−(ODo/OD))×100.
The M24 cell line is derived from human melanoma cells. The U2OS cell line is a human osteosarcoma cell line expressing wild type p53 and Rb, but lacking p16. The MM1S cell line is a multiple myeloma cell line; the parent cell line, MM.1, was established from peripheral blood of a multiple myeloma patient who had become resistant to steroid-based therapy. The RPMI8226 cell line is derived from human B lymphocyte cells. NHDF cells are normal human dermal fibroblast cells. The MRC-5 cell line is derived from normal lung tissue of a fetus. The PC3 cell line is a human prostate cancer cell line. The DU-145 cell line is a human prostate cancer cell line. The MDA-MB-231 cell line is a human breast adenocarcinoma cell line. The MDA-MB-468 cell line is a human breast carcinoma cell line. HL-60 cells are human promyelocytic leukemia cells. Hep G2 cells are human hepatocellular carcinoma cells. HEP 3B cells are human hepatocellular carcinoma cells. The DLD-1 cell line is a colorectal adenocarcinoma cell line. The HCT-15 cell line is a human colon carcinoma cell line. The Colo-205 cell line is derived from a human adenocarcinoma of the colon. The LoVo cell line is a human colon adenocarcinoma cell line.

A further test concerns 3T3 cells. As to conditions: Mus musculus, NIH3T3, approximately 64-72 hours incubation. In a few lines: (§1)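 Cytotoxicity was measured by MTT: OD490 of the solubilized formazan after roughly 4 h with MTT reagent, reported as mean percent inhibition relative to the negative control. Test compounds covered eight concentrations between 1 nM and 30 μM, added to 5,000–10,000 cells per well that had attached overnight.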

For the next test, the system named is MS751 cells. As to conditions: Homo sapiens, MS751, MS751 cells, approximately 64-72 hours incubation. In a few lines:
as §1

A further test deals with Z138 cells. As to conditions: Homo sapiens, Z-138, Z138 cells, approximately 64-72 hours incubation. In a few lines:
as §1

Where [1] appears, read: read-out: MTT Assay IC50 MS-751.
Setting [2] is: read-out: MTT Assay IC50, MS-751.
Setting [3] is: read-out: MTT Assay IC50, Z-138.

Read-outs that look alike come from different tables or passages of the source.

For the compound `Nc1ccc(/C=C/C(=O)NCc2cc3cc(-c4ccc(C(=O)N5CCOCC5)cn4)cc(C(F)(F)F)c3o2)cn1` [Compound 521, (E)-3-(6-aminopyridin-3-yl)-N-((5-(5-(morpholine-4-carbonyl)pyridin-2-yl)-7-(trifluoromethyl)benzofuran-2-yl)methyl)acrylamide], the IC50 was 0.1 to 5 µM with MDA-MB-231 cells, above 10 µM in the test with 3T3 cells (read-out: MTT Assay IC50 3T3), below 0.1 µM in the test on MS751 cells (setting [1]) and below 0.1 µM in the test with Z138 cells (read-out: MTT Assay IC50 Z-138).
On to `CC1(C)COCCN1C(=O)c1ccc(-c2cc(C(F)(F)F)c3oc(CNC(=O)/C=C/c4ccc(N)nc4)cc3c2)cc1` [Compound 517, (E)-3-(6-aminopyridin-3-yl)-N-((5-(4-(3,3-dimethylmorpholine-4-carbonyl)phenyl)-7-(trifluoromethyl)benzofuran-2-yl)methyl)acrylamide], for which the IC50 is 0.1 to 5 µM in the test on MDA-MB-231 cells, above 10 µM with 3T3 cells (read-out: MTT Assay IC50 3T3), 0.1 to 5 µM in the test on MS751 cells (setting [1]) and 0.1 to 5 µM with Z138 cells (read-out: MTT Assay IC50 Z-138).
As for `Nc1ccc(/C=C/C(=O)NCc2cc3cc(-c4ccc(C(=O)N5CCC(F)(F)CC5)cc4F)cc(-c4ccc(Cl)cc4)c3o2)cn1` [Compound 750, (E)-3-(6-aminopyridin-3-yl)-N-((7-(4-chlorophenyl)-5-(4-(4,4-difluoropiperidine-1-carbonyl)-2-fluorophenyl)benzofuran-2-yl)methyl)acrylamide], the IC50 in the test on 3T3 cells (read-out: MTT Assay IC50, 3T3) was above 10 µM; with MS751 cells (setting [2]) it was 0.1 to 5 µM; with Z138 cells (setting [3]) it was 0.1 to 5 µM.
As to `CN1CCN(C(=O)c2ccc(-c3cc(Cl)c4oc(CNC(=O)/C=C/c5ccc(N)nc5)cc4c3)cc2)CC1` [Compound 576, (E)-3-(6-aminopyridin-3-yl)-N-((7-chloro-5-(4-(4-methylpiperazine-1-carbonyl)phenyl)benzofuran-2-yl)methyl)acrylamide], the IC50 with 3T3 cells (read-out: MTT Assay IC50 3T3) is above 10 µM; in the test on MS751 cells (setting [1]), 0.1 to 5 µM; with Z138 cells (read-out: MTT Assay IC50 Z-138), 0.1 to 5 µM.
Turning to `Nc1ccc(/C=C/C(=O)NCc2cc3cc(-c4ccc(NC(=O)N5CCOCC5)cc4)cc(Cl)c3o2)cn1` [Compound 582, (E)-N-(4-(2-((3-(6-aminopyridin-3-yl)acrylamido)methyl)-7-chlorobenzofuran-5-yl)phenyl)morpholine-4-carboxamide], the figures for the IC50 in the test with 3T3 cells (read-out: MTT Assay IC50 3T3), with MS751 cells (setting [1]) and with Z138 cells (read-out: MTT Assay IC50 Z-138) were above 10 µM, 5 to 10 µM and 5 to 10 µM, respectively.
For the compound `Nc1ccc(/C=C/C(=O)NCc2cc3cc(-c4ccc(C(=O)N5CC6(COC6)C5)cn4)cc(C(F)(F)F)c3o2)cn1` [Compound 625, (E)-N-((5-(5-(2-oxa-6-azaspiro[3.3]heptane-6-carbonyl)pyridin-2-yl)-7-(trifluoromethyl)benzofuran-2-yl)methyl)-3-(6-aminopyridin-3-yl)acrylamide], the IC50 is 0.1 to 5 µM with 3T3 cells (read-out: MTT Assay IC50 3T3), below 0.1 µM with MS751 cells (setting [1]) and below 0.1 µM with Z138 cells (read-out: MTT Assay IC50 Z-138).
For the compound `COc1cc(-c2ccc(C(=O)N3CCNCC3)cn2)cc2cc(CNC(=O)/C=C/c3ccc(N)nc3)oc12` [Compound 641, (E)-3-(6-aminopyridin-3-yl)-N-((7-methoxy-5-(5-(piperazine-1-carbonyl)pyridin-2-yl)benzofuran-2-yl)methyl)acrylamide], the IC50 with 3T3 cells (read-out: MTT Assay IC50 3T3) was above 10 µM; in the test with MS751 cells (setting [1]), below 0.1 µM; in the test with Z138 cells (read-out: MTT Assay IC50 Z-138), below 0.1 µM.
In the case of `CC1(F)CCN(C(=O)c2ccc(-c3cc(C(F)(F)F)c4oc(CNC(=O)/C=C/c5ccc(N)nc5)cc4c3)nc2)C1` (centres unmarked) [Compound 617, (E)-3-(6-aminopyridin-3-yl)-N-((5-(5-(3-fluoro-3-methylpyrrolidine-1-carbonyl)pyridin-2-yl)-7-(trifluoromethyl)benzofuran-2-yl)methyl)acrylamide], the IC50 is above 10 µM in the test on 3T3 cells (read-out: MTT Assay IC50 3T3), 0.1 to 5 µM in the test on MS751 cells (setting [1]) and below 0.1 µM in the test with Z138 cells (read-out: MTT Assay IC50 Z-138).
Turning to `Nc1ccc(/C=C/C(=O)NCc2cc3cc(-c4ccc(C(=O)N5CCC(F)(F)CC5)cc4F)cc(-c4ccc(F)cc4F)c3o2)cn1` [Compound 753, (E)-3-(6-aminopyridin-3-yl)-N-((7-(2,4-difluorophenyl)-5-(4-(4,4-difluoropiperidine-1-carbonyl)-2-fluorophenyl)benzofuran-2-yl)methyl)acrylamide], the IC50 with 3T3 cells (read-out: MTT Assay IC50, 3T3) is 0.1 to 5 µM; with MS751 cells (setting [2]), below 0.1 µM; in the test on Z138 cells (setting [3]), below 0.1 µM.
`Nc1ccc(/C=C/C(=O)NCc2cc3cc(-c4ccc(C(=O)N5CCC(F)(F)CC5)cc4)cc(OC(F)(F)F)c3o2)cn1` [Compound 686, (E)-3-(6-aminopyridin-3-yl)-N-((5-(4-(4,4-difluoropiperidine-1-carbonyl)phenyl)-7-(trifluoromethoxy)benzofuran-2-yl)methyl)acrylamide]: the IC50 is above 10 µM in the test on 3T3 cells (read-out: MTT Assay IC50, 3T3); 0.1 to 5 µM in the test on MS751 cells (setting [2]); 0.1 to 5 µM in the test with Z138 cells (setting [3]).
Take `Nc1ccc(/C=C/C(=O)NCc2cc3cc(-c4ccc(C(=O)N5CCC(C(F)(F)F)CC5)cc4)cc(C(F)(F)F)c3o2)cn1` [Compound 605, (E)-3-(6-aminopyridin-3-yl)-N-((7-(trifluoromethyl)-5-(4-(4-(trifluoromethyl)piperidine-1-carbonyl)phenyl)benzofuran-2-yl)methyl)acrylamide]: the figures for the IC50 with 3T3 cells (read-out: MTT Assay IC50 3T3), with MS751 cells (setting [1]) and in the test with Z138 cells (read-out: MTT Assay IC50 Z-138) were above 10 µM, 0.1 to 5 µM and 0.1 to 5 µM, respectively.
For the compound `Nc1ccc(/C=C/C(=O)NCc2cc3cc(-c4cc(C(=O)N5CCOCC5)c(F)cn4)cc(C(F)(F)F)c3o2)cn1` [Compound 580, (E)-3-(6-aminopyridin-3-yl)-N-((5-(5-fluoro-4-(morpholine-4-carbonyl)pyridin-2-yl)-7-(trifluoromethyl)benzofuran-2-yl)methyl)acrylamide], the IC50 with 3T3 cells (read-out: MTT Assay IC50 3T3) is 5 to 10 µM; in the test with MS751 cells (setting [1]), below 0.1 µM; with Z138 cells (read-out: MTT Assay IC50 Z-138), below 0.1 µM.
Turning to `CN1C(=O)c2ccc(-c3cc(Cl)c4oc(CNC(=O)/C=C/c5ccc(N)nc5)cc4c3)cc2C1=O` [Compound 514, (E)-3-(6-aminopyridin-3-yl)-N-((7-chloro-5-(2-methyl-1,3-dioxoisoindolin-5-yl)benzofuran-2-yl)methyl)acrylamide], the IC50 in the test on 3T3 cells (read-out: MTT Assay IC50 3T3) is above 10 µM; with MS751 cells (setting [1]), 5 to 10 µM; in the test on Z138 cells (read-out: MTT Assay IC50 Z-138) it was 0.1 to 5 µM.

For the origin of these results see patent US12331040B2 (Karyopharm Therapeutics Inc., priority 2013, dated 2025).
